In a melting point compilation (Tetko et al.; mined from patent text by program, amines drawn as free bases though some values may be those of a salt):

SMILES | melting point [°C]
CC(=O)NC(=O)Nc1ccc(OS(=O)(=O)c2cccc(C(F)(F)F)c2)cc1N | 182
COc1ncc(NC(=S)NC(=O)c2ccccc2)c(OC)n1 | 182
CON=Cc1ccc(-c2cc(F)cc(F)c2NC(=O)c2c(C)nn(C)c2F)cc1 | 164 to 167
Nc1ccc(OCC(=O)OCCO)cc1 | 104 to 106
Cc1ccc(C2=C(c3ccc(S(C)(=O)=O)cc3)OC(C)(C)C2=O)cc1 | 167 to 168
COc1ccc2[nH]c(S(=O)Cc3ncnc(N4CCCCC4)c3C)nc2c1 (stereo unspecified) | 87 to 89
CNc1nc(C)cc(-n2ccc3ccccc32)n1 | 160 to 162
CC1(C)CCC(C)(C)c2nc3c(nc21)CCc1c(-c2ccc(C(=O)O)cc2)nn(Cc2cccnc2)c1-3 | 250 to 252
COC(=O)c1ccc(OCCCNc2ccc3c(c2)OCO3)cc1 | 124 to 127
CC(=O)C(O)C1OC(n2cnc3c(NC4CCCc5ccccc54)ncnc32)C(O)C1O (stereo unspecified) | 87 to 97
CN=C1c2ccccc2CCc2ccc(Cl)cc21 | 84 to 114
CCOC(=O)c1cn(-c2ccc([N+](=O)[O-])cn2)nc1SCc1ccccc1 | 164 to 166
COc1ccc(S(=O)(=O)Nc2cccnc2Nc2ccc(O)cc2)cc1 | 178 to 179
O=C(O)c1cccc2c1oc1ccccc12 | 164 to 165
CCCCCCCCCCC(O)CNCCCCCCNCC(O)CCCCCCCCCC (stereo unspecified) | 124 to 128
CN(c1ccc(C(=O)O)cc1)c1cc2c3c(c1)CCCC3CCC2 | 288 to 289
CC#Cc1cn(C2OC(CO)C(O)C2O)c(=O)[nH]c1=O (stereo unspecified) | 225 to 227
O=C1NCC(c2ccsc2)SCC1N1C(=O)c2ccccc2C1=O (stereo unspecified) | 243 to 245
COC1C(O)C(CO)OC1n1ccc(N)nc1=O (stereo unspecified) | 252 to 254
CCn1c(C)nc2cc(C(F)(F)F)cc(N)c21 | 144 to 145
O=C(c1ccc(C(F)(F)F)cc1)N1Cc2c(-c3ccc(F)cc3)ncn2-c2ccccc21 | 211 to 212
O=C(Nc1ccc(Cl)c(Cl)c1)c1cc(C(F)(F)F)cc([N+](=O)[O-])c1N1CCCCC1 | 144
CCCCc1nc2c(c(=O)[nH]1)CN(C(=O)C(C)(C)O)CC2 | 159 to 161
COc1ccc(Sc2cc3ccccc3nn2)cc1 | 108
CC(C)N1CCC(=C2c3ccn(C)c3CCn3ccnc32)CC1 | 178
COC(CCc1ccc(Cl)cc1Cl)(Cn1cncn1)C(C)(C)C1OCCCO1 (stereo unspecified) | 130 to 132

SMILES | melting point [°C]
CCCOc1ccc2c(c1)[C@@H](c1ccc(OC)cc1OCCO)[C@H](C(=O)O)[C@H]2c1ccc2c(c1)OCO2 | 125 to 127
Cc1nc2cccnc2c(O)c1C(=O)c1ccccc1 | > 260
CCOC(=O)/C=C(/c1ccc(OC)cc1)c1cc(F)cc(F)c1 | 65 to 66
CN(C)c1cccc(CN2C(=O)C3(COc4cc5c(cc43)OCCO5)c3ccccc32)n1 (stereo unspecified) | 196 to 197
C[C@@H]1CCCN1CCCOc1ccc(-c2cc(-c3ccccn3)c(=O)[nH]n2)cc1 | 157 to 161
COc1ccc(C(=C/C=C/C(=O)NCCCCc2cccnc2)c2ccc(OC)cc2)cc1 | 76 to 77
COC1CCC(OS(=O)(=O)c2ccc(C)cc2)C(COS(=O)(=O)c2ccc(C)cc2)O1 (stereo unspecified) | 110 to 112
CC(=O)Nc1ccc(F)cc1S(=O)(=O)CC#N | 154 to 157
[N-]=[N+]=N[C@H](C(=O)O)C12CC3CC(CC(C3)C1)C2 | 110 to 112
OC(c1ccc(F)cc1)c1cccnc1 (stereo unspecified) | 45 to 47
CC1N=C(c2ccccc2F)c2cc(Br)ccc2NC1=O (stereo unspecified) | 183 to 185
Cc1oc(-c2ccccc2)nc1CCOc1ccc(/C=C/C=C/CO)cc1 | 132 to 133
CCOC(=O)c1sc(Oc2ccc(Cl)cc2Cl)nc1-c1cccc(C(F)(F)F)c1 | 72 to 73
CS(=O)(=O)c1cc(S(N)(=O)=O)sc1CO | 175 to 178
Nc1c(CC(=O)N2CCOCC2)cccc1C(=O)c1ccccc1 | 156 to 158
O=S(=O)(c1ccc2ccccc2c1)N1CCOc2ccc(CCCI)cc21 | 87 to 88
CSCc1cnc2c([N+](=O)[O-])cccc2c1Cl | 96 to 98
O=C(C=Cc1ccccc1C(F)(F)F)C=Cc1ccccc1C(F)(F)F | 131 to 133
COc1ccc(C2(c3ccc(N(C)C)cc3)OC(=O)c3cc(N(C)C)ccc32)c(OC)c1 (stereo unspecified) | 192 to 194
COc1cc(C(=O)c2ncc3c(C(=O)N(C)C)cccn23)ccc1[N+](=O)[O-] | 176
COc1ccc2c(c1)c(CC(=O)N(C)O)c(C)n2C(=O)c1ccc(Cl)cc1 | 170 to 171
COc1ccc(C(=O)NC(=S)NCc2ccccc2C(N)=O)cc1 | 140 to 143
O=C(C=NO)Nc1ccccc1F | 120
C=C(C)COc1ccc(NC(C)=O)c(C)c1C | 154 to 156
COC(=O)C1=C(O)c2sc3ccccc3c2S(=O)(=O)N1 | 240 to 242
